According to publication PMC6001238, “Iterative Chemical Engineering of Vancomycin Leads to Novel Vancomycin Analogs With a High in Vitro Therapeutic Index” (Frontiers in Microbiology, 2018):
Converted amounts (≈) assume the structure as drawn.

Key:
[1] = test system: S. aureus VSSA (ATCC 6538); experiment: MIC, broth microdilution, vancomycin-sensitive S. aureus (VSSA/MSSA, ATCC 6538); assay type: cell-based, Staphylococcus aureus; details: for MIC: Staphylococcus aureus VSSA, read-out: MIC; for MIC-fold improvement vs. vancomycin: VSSA, ratio of MIC of vancomycin and MIC of analogue
Summary of the method: (§1)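 Susceptibility was scored by broth microdilution (CLSI). In one instance each vancomycin analog or control antibiotic was tested in the presence of vancomycin, 10 μM final, and ultrapure water plus non-inoculated broth were included as controls.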

[2] = test system: Murine leukemia (L1210) cells; experiment: Cytostatic activity, L1210 cell proliferation; assay type: cell-based; details: mean ± SD of three experiments; highest concentration tested 250 µM; 2 days; read-out: Toxicity (IC50) L1210
Summary of the method: (§2)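 Suspensions (300,000–500,000 cells/mL) combined with equal volumes of diluted compound; 37°C; L1210 2 d / CEM 3 d / HeLa 4 d; counted by Coulter counter; IC50 vs untreated wells.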

E. faecalis VRE 37 = experiment: MIC, broth microdilution, vancomycin-resistant E. faecalis VRE 37 (VanA); assay type: cell-based, Enterococcus faecalis; details: for MIC: Enterococcus faecalis VRE 37 (vancomycin-resistant), read-out: MIC; for MIC-fold improvement vs. vancomycin: VRE 37, ratio of MIC of vancomycin and MIC of analogue
Summary of the method: as §1

MRSA KS6 = experiment: MIC, broth microdilution, MRSA KS6; assay type: cell-based, Staphylococcus aureus; details: for MIC-fold improvement vs. vancomycin: MRSA KS6, ratio of MIC of vancomycin and MIC of analogue; for MIC: Staphylococcus aureus MRSA KS6, read-out: MIC
Summary of the method: as §1

[3] = test system: Clostridium difficile AIU ribotype 027; experiment: MIC, plate drop assay, C. difficile AIU ribotype 027; assay type: cell-based; details: for MIC-fold improvement vs. vancomycin: C. difficile AIU ribotype 027; for MIC: C. difficile AIU ribotype 027, plate drop assay
Description: (§3) Bacterial lawns of both C. difficile strains were prepared by adding 0.5 mL overnight culture to 8 mL sloppy BHI agar (0.4% agar) supplemented with 1.5 g/L CaCl2⋅2H2O and 81.2 g/L MgCl2⋅6H2O, and pouring the mixture into Petri plates. A twofold dilution series of the selected vancomycin analogs, vancomycin ([…]) and daptomycin (25 μM) was spotted (10 μL) on the bacterial lawn. Spots were air-dried and the plates were incubated overnight at 37°C in an anaerobic cabinet. Ultrapure water was included as negative control. The assay was performed in triplicate. Inhibition was observed by cleared spots.

E. faecalis VRE 53 = experiment: MIC, broth microdilution, vancomycin-resistant E. faecalis VRE 53 (VanA); assay type: cell-based, Enterococcus faecalis; details: for MIC: Enterococcus faecalis VRE 53 (vancomycin-resistant), read-out: MIC; for MIC-fold improvement vs. vancomycin: VRE 53, ratio of MIC of vancomycin and MIC of analogue
Summary of the method: as §1

MRSA KS89 = experiment: MIC, broth microdilution, MRSA KS89; assay type: cell-based, Staphylococcus aureus; details: for MIC-fold improvement vs. vancomycin: MRSA KS8, ratio of MIC of vancomycin and MIC of analogue; for MIC: Staphylococcus aureus MRSA KS8, read-out: MIC
Summary of the method: as §1

MRSA KS2 = experiment: MIC, broth microdilution, MRSA KS2; assay type: cell-based, Staphylococcus aureus; details: for MIC-fold improvement vs. vancomycin: MRSA KS2, ratio of MIC of vancomycin and MIC of analogue; for MIC: Staphylococcus aureus MRSA KS2, read-out: MIC
Summary of the method: as §1

[4] = test system: human T-lymphocyte (CEM) cells; experiment: Cytostatic activity, CEM cell proliferation; assay type: cell-based; details: mean ± SD of three experiments; highest concentration tested 250 µM; 3 days; read-out: Toxicity (IC50) CEM
Summary of the method: as §2

[5] = test system: human cervix carcinoma (HeLa) cells; experiment: Cytostatic activity, HeLa cell proliferation; assay type: cell-based; details: mean ± SD of three experiments; highest concentration tested 250 µM; 4 days; read-out: Toxicity (IC50) HeLa
Summary of the method: as §2

E. faecalis VRE 6 = experiment: MIC, broth microdilution, vancomycin-resistant E. faecalis VRE 6 (VanA); assay type: cell-based, Enterococcus faecalis; details: for MIC: Enterococcus faecalis VRE 6 (vancomycin-resistant), read-out: MIC; for MIC-fold improvement vs. vancomycin: VRE 6, ratio of MIC of vancomycin and MIC of analogue
Summary of the method: as §1

E. faecalis VSE 1 = experiment: MIC, broth microdilution, vancomycin-sensitive E. faecalis (VSE 1); assay type: cell-based, Enterococcus faecalis; details: for MIC: Enterococcus faecalis VSE 1 (vancomycin-sensitive), read-out: MIC; for MIC-fold improvement vs. vancomycin: VSE 1, ratio of MIC of vancomycin and MIC of analogue
Summary of the method: as §1

MRSA KS1 = experiment: MIC, broth microdilution, MRSA KS1; assay type: cell-based, Staphylococcus aureus; details: for MIC-fold improvement vs. vancomycin: MRSA KS1, ratio of MIC of vancomycin and MIC of analogue; for MIC: Staphylococcus aureus MRSA KS1, read-out: MIC
Summary of the method: as §1

[6] = test system: Clostridium difficile ATJ ribotype 014/20; experiment: MIC, plate drop assay, C. difficile ATJ ribotype 014/20; assay type: cell-based; details: for MIC-fold improvement vs. vancomycin: C. difficile ATJ ribotype 014/20
Description: as §3

S. aureus VISA/HIP5827 = experiment: MIC, broth microdilution, vancomycin-intermediate S. aureus VISA HIP5827; assay type: cell-based, Staphylococcus aureus; details: for MIC: Staphylococcus aureus VISA/HIP5827, read-out: MIC; for MIC-fold improvement vs. vancomycin: VISA/HIP5827, ratio of MIC of vancomycin and MIC of analogue
Summary of the method: as §1

S. aureus VRSA = experiment: MIC, broth microdilution, vancomycin-resistant S. aureus (VRSA); assay type: cell-based, Staphylococcus aureus; details: for MIC: Staphylococcus aureus VRSA, read-out: MIC; for MIC-fold improvement vs. vancomycin: VRSA, ratio of MIC of vancomycin and MIC of analogue
Summary of the method: as §1

E. faecalis VRE 29 = experiment: MIC, broth microdilution, vancomycin-resistant E. faecalis VRE 29 (VanA); assay type: cell-based, Enterococcus faecalis; details: for MIC: Enterococcus faecalis VRE 29 (vancomycin-resistant), read-out: MIC; for MIC-fold improvement vs. vancomycin: VRE 29, ratio of MIC of vancomycin and MIC of analogue
Summary of the method: as §1

[7] = test system: L1210, CEM and HeLa cell lines; experiment: Cytostatic activity, average or summary over L1210, CEM and HeLa; assay type: cell-based; details: average of L1210, CEM and HeLa; read-out: Toxicity (IC50) Average
Summary of the method: as §2

CNC(CC(C)C)C(=O)NC1C(=O)NC(CC(N)=O)C(=O)NC2C(=O)NC3C(=O)NC(C(=O)NC(C(=O)NCCCNC(=O)c4ccc(-c5ccc(F)cc5)cc4)c4cc(O)cc(O)c4-c4cc3ccc4O)C(O)c3ccc(c(Cl)c3)Oc3cc2cc(c3OC2OC(CO)C(O)C(O)C2OC2CC(C)(N)C(O)C(C)O2)Oc2ccc(cc2Cl)C1O (stereo not drawn) [Vanc-34]
MIC [1]: 0.10 µM (≈ 0.17 µg/mL) | MIC-fold improvement vs. vancomycin [1]: 8 | IC50 [2]: 42 ± 7 µM | MIC (E. faecalis VRE 37): 6.25 µM (≈ 10.6 µg/mL) | MIC-fold improvement vs. vancomycin (E. faecalis VRE 37): 64 | MIC-fold improvement vs. vancomycin (MRSA KS6): 4 | MIC (MRSA KS6): 0.20 µM (≈ 0.341 µg/mL) | MIC-fold improvement vs. vancomycin [3]: 29 | MIC [3]: 1.56 µM (≈ 2.66 µg/mL) | MIC (E. faecalis VRE 53): 12.5 µM (≈ 21.3 µg/mL) | MIC-fold improvement vs. vancomycin (E. faecalis VRE 53): 32 | MIC-fold improvement vs. vancomycin (MRSA KS89): 4 | MIC (MRSA KS89): 0.20 µM (≈ 0.341 µg/mL) | MIC-fold improvement vs. vancomycin (MRSA KS2): 8 | MIC (MRSA KS2): 0.10 µM (≈ 0.17 µg/mL) | IC50 [4]: 34 ± 2 µM | IC50 [5]: 110 ± 8 µM | MIC (E. faecalis VRE 6): 0.39 µM (≈ 0.664 µg/mL) | MIC-fold improvement vs. vancomycin (E. faecalis VRE 6): 513 | MIC (E. faecalis VSE 1): 0.20 µM (≈ 0.341 µg/mL) | MIC-fold improvement vs. vancomycin (E. faecalis VSE 1): 8 | MIC-fold improvement vs. vancomycin (MRSA KS1): 4 | MIC (MRSA KS1): 0.20 µM (≈ 0.341 µg/mL) | MIC-fold improvement vs. vancomycin [6]: 22 | MIC ([6]; C. difficile ATJ ribotype 014/20, plate drop assay): 1.56 µM (≈ 2.66 µg/mL) | MIC (S. aureus VISA/HIP5827): 0.10 µM (≈ 0.17 µg/mL) | MIC-fold improvement vs. vancomycin (S. aureus VISA/HIP5827): 64 | MIC (S. aureus VRSA): 0.78 µM (≈ 1.33 µg/mL) | MIC-fold improvement vs. vancomycin (S. aureus VRSA): 128 | MIC (E. faecalis VRE 29): 3.13 µM (≈ 5.33 µg/mL) | MIC-fold improvement vs. vancomycin (E. faecalis VRE 29): 128 | IC50 [7]: 62 µM

CN[C@H](CC(C)C)C(=O)N[C@H]1C(=O)N[C@@H](CC(N)=O)C(=O)N[C@H]2C(=O)N[C@H]3C(=O)N[C@H](C(=O)N[C@H](C(=O)NCC(=O)Nc4ccc(C)cc4)c4cc(O)cc(O)c4-c4cc3ccc4O)[C@H](O)c3ccc(c(Cl)c3)Oc3cc2cc(c3O[C@@H]2O[C@H](CO)[C@@H](O)[C@H](O)[C@H]2O[C@H]2C[C@](C)(N)[C@H](O)[C@H](C)O2)Oc2ccc(cc2Cl)[C@H]1O [Vanc-4]
MIC [1]: 0.39 µM (≈ 0.622 µg/mL) | MIC-fold improvement vs. vancomycin [1]: 2 | IC50 [2]: > 250 µM | MIC (E. faecalis VRE 37): 6.25 µM (≈ 9.97 µg/mL) | MIC-fold improvement vs. vancomycin (E. faecalis VRE 37): 128 | MIC-fold improvement vs. vancomycin (MRSA KS6): 2 | MIC (MRSA KS6): 0.39 µM (≈ 0.622 µg/mL) | MIC-fold improvement vs. vancomycin [3]: <1.8 | MIC [3]: >25 µM | MIC (E. faecalis VRE 53): 6.25 µM (≈ 9.97 µg/mL) | MIC-fold improvement vs. vancomycin (E. faecalis VRE 53): 64 | MIC-fold improvement vs. vancomycin (MRSA KS89): 2 | MIC (MRSA KS89): 0.39 µM (≈ 0.622 µg/mL) | MIC-fold improvement vs. vancomycin (MRSA KS2): 4 | MIC (MRSA KS2): 0.20 µM (≈ 0.319 µg/mL) | IC50 [4]: > 250 µM | IC50 [5]: > 250 µM | MIC (E. faecalis VRE 6): 3.13 µM (≈ 4.99 µg/mL) | MIC-fold improvement vs. vancomycin (E. faecalis VRE 6): 64 | MIC (E. faecalis VSE 1): 0.39 µM (≈ 0.622 µg/mL) | MIC-fold improvement vs. vancomycin (E. faecalis VSE 1): 4 | MIC-fold improvement vs. vancomycin (MRSA KS1): 2 | MIC (MRSA KS1): 0.39 µM (≈ 0.622 µg/mL) | MIC-fold improvement vs. vancomycin [6]: 5.6 | MIC (S. aureus VISA/HIP5827): 0.39 µM (≈ 0.622 µg/mL) | MIC-fold improvement vs. vancomycin (S. aureus VISA/HIP5827): 16 | MIC (S. aureus VRSA): 6.25 µM (≈ 9.97 µg/mL) | MIC-fold improvement vs. vancomycin (S. aureus VRSA): 16 | MIC (E. faecalis VRE 29): 6.25 µM (≈ 9.97 µg/mL) | MIC-fold improvement vs. vancomycin (E. faecalis VRE 29): 64 | IC50 [7]: > 250 µM
